The compounds below were run against hFASN enzyme (full length) (Homo sapiens (Human), UniProt P49327) (assay: Fatty Acid Synthase (FASN) Inhibition Scintillation Proximity Assay). Settings: 3H-acetyl-CoA and malonyl-CoA substrates, SPA, mean if tested more than once.
Format: biochemical
Experimental: In this assay, inhibition of FASN activity is measured using ^3H-acetyl-CoA and malonyl-CoA as substrates. ^3H-Acetyl CoA is converted to ^3H-palmitate through a series of reactions by the FASN protein, which contains 7 functional domains and carries out 7 enzymatic reactions to ultimately produce ^3H-palmitate. The assay principle is based upon the fact that ^3H-acetyl-CoA is hydrophilic and the end product, ^3H-palmitate is hydrophobic.
10 μL assay buffer (100 mM KH2PO4 pH 7.5, 1 mM DTT) (20 μL in blanks) was added to a 384-well white Opti Plate plate (Perkin Elmer). 0.9 μL test compound (at concentrations of 30 μM, 10 μM, 3 μM, 1 μM, 0.30 μM, 0.10 μM, 0.03 μM and 0.01 μM)/DMSO and 10 μL hFASN enzyme (full length, 300 ng, purified in house) or 10 μL assay buffer was added to the wells. […] The reaction was stopped by adding 20 μL Streptavidin coupled imaging beads (25 mg/ml). After incubation for 30 minutes at room temperature in the dark, the 384 well plate was centrifuged at 1500 rpm for 3 minutes and was measured after at least 24 hrs by the LEADseeker™, measuring emission using a 610±20 nm pass filter.
Raw data generated by the instrument were normalized to % Controlmin values, which were calculated as: % Controlmin=100*(x−mLC)/(mHC−mLC)
where mLC and mHC were the means of the low control wells and high control wells on the plate, after manual exclusion of outliers. A plot of Controlmin versus test compound concentration was fitted to a 4-parameter logistic curve using a non-linear least squares regression method.

Chain of hFASN enzyme (full length) (P49327 whole entry): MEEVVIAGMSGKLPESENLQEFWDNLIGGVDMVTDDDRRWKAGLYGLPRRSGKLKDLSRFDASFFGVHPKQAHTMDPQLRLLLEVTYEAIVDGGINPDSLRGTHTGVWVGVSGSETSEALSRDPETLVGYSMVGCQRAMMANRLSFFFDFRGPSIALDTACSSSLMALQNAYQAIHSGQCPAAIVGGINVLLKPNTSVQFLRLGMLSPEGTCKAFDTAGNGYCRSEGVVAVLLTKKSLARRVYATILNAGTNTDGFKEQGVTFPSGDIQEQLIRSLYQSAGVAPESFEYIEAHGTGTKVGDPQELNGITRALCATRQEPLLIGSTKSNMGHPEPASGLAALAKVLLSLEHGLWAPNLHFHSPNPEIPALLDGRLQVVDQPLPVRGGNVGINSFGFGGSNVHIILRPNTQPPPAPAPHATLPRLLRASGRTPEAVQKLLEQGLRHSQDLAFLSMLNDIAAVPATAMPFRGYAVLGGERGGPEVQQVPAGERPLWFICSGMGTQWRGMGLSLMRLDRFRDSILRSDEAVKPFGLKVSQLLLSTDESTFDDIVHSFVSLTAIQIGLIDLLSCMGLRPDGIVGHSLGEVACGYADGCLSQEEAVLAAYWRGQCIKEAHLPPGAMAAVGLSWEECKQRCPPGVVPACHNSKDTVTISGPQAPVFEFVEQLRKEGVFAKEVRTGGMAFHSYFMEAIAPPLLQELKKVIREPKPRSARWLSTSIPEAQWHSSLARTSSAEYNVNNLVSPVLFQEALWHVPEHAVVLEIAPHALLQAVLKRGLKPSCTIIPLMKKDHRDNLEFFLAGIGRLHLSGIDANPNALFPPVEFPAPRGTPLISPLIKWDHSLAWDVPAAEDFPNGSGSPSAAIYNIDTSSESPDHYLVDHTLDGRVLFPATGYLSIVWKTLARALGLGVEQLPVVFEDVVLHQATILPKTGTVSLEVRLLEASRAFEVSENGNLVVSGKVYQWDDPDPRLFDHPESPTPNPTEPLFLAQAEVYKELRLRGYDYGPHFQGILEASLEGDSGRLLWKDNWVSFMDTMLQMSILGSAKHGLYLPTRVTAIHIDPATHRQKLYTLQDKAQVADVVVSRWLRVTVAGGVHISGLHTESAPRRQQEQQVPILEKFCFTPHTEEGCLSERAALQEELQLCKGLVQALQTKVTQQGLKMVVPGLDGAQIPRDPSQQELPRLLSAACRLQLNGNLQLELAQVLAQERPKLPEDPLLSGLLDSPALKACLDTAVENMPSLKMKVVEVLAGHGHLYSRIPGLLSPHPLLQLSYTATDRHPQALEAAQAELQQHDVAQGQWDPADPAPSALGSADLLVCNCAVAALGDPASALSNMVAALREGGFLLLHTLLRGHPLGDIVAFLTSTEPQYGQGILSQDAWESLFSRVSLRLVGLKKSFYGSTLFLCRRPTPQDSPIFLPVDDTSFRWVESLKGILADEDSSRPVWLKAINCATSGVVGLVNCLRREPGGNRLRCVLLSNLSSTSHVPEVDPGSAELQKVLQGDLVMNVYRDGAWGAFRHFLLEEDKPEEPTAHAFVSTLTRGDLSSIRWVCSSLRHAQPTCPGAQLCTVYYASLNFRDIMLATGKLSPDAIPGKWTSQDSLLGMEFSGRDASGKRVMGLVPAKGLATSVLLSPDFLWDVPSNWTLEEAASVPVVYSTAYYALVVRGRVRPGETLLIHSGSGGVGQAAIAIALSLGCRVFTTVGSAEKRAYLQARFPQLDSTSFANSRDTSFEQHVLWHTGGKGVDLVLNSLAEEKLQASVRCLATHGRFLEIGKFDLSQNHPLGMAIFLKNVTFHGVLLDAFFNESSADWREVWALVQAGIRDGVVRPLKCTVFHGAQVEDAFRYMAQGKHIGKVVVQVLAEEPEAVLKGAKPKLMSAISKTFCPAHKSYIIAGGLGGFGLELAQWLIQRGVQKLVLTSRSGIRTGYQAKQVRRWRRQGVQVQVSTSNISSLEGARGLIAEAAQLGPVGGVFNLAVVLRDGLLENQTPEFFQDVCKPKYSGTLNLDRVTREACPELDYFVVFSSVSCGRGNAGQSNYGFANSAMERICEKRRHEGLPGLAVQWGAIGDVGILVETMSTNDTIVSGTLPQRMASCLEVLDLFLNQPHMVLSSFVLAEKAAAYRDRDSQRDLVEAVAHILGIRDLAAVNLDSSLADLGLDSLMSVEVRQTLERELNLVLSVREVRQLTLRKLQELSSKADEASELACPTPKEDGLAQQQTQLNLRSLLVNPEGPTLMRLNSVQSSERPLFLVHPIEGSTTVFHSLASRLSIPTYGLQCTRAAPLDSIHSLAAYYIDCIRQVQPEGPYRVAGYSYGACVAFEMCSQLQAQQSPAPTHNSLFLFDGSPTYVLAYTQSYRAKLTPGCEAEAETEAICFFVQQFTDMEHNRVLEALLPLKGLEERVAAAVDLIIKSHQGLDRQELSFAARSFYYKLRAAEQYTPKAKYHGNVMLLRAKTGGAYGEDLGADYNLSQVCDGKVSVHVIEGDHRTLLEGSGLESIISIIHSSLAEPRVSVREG

Compound | Human FASN pIC50
CC1(C)N=C(c2ccc(-c3nc4ccccc4o3)cc2)N(CC2CN(C(=O)C3CC3)C2)C1=O [Compound 12, 2-(4-(benzo[d]oxazol-2-yl)phenyl)-1-((1-(cyclopropanecarbonyl)azetidin-3-yl)methyl)-4,4-dimethyl-1H-imidazol-5(4H)-one] | ~5.37
CC1(C)N=C(c2ccc(-c3cccc4ncccc34)cc2)N(CC2CN(C(=O)C3CC3)C2)C1=O [Compound 18, 1-((1-(cyclopropanecarbonyl)azetidin-3-yl)methyl)-4,4-dimethyl-2-(4-(quinolin-5-yl)phenyl)-1H-imidazol-5(4H)-one] | ~5.25
CC1(C)N=C(c2ccc(-c3cnc4ccccc4c3)cc2)N(CC2CN(C(=O)C3CC3)C2)C1=O [Compound 19, 1-((1-(cyclopropanecarbonyl)azetidin-3-yl)methyl)-4,4-dimethyl-2-(4-(quinolin-3-yl)phenyl)-1H-imidazol-5(4H)-one] | 5.38
CC1(C)N=C(c2ccc(-c3cccc4cnccc34)cc2F)N(CC2CN(C(=O)C3CC3)C2)C1=O [Compound 21, 1-((1-(cyclopropanecarbonyl)azetidin-3-yl)methyl)-2-(2-fluoro-4-(isoquinolin-5-yl)phenyl)-4,4-dimethyl-1H-imidazol-5(4H)-one] | 5.87
CC1(C)N=C(c2ccc(-c3n[nH]c4ccccc34)cc2)N(C[C@@H]2CCN(C(=O)C3CC3)C2)C1=O [Compound 35, (R)-2-(4-(1H-indazol-3-yl)phenyl)-1-((1-(cyclopropanecarbonyl)pyrrolidin-3-yl)methyl)-4,4-dimethyl-1H-imidazol-5(4H)-one] | ~5.19
CC1(C)N=C(c2ccc(-c3ccc4cncnc4c3)cc2)N(CC2CN(C(=O)C3CC3)C2)C1=O [Compound 36, 1-((1-(cyclopropanecarbonyl)azetidin-3-yl)methyl)-4,4-dimethyl-2-(4-(quinazolin-7-yl)phenyl)-1H-imidazol-5(4H)-one] | 5.43
CC1(C)N=C(c2ccc(-c3ccc4ncccc4c3)cc2F)N(C[C@@H]2CCN(C(=O)C3CC3)C2)C1=O [Compound 37, (R)-1-((1-(cyclopropanecarbonyl)pyrrolidin-3-yl)methyl)-2-(2-fluoro-4-(quinolin-6-yl)phenyl)-4,4-dimethyl-1H-imidazol-5(4H)-one] | 5.86
CC1(C)N=C(c2ccc(-c3ccc4ncccc4c3)cc2F)N(CC2CN(C(=O)C3CC3)C2)C1=O [Compound 38, 1-((1-(cyclopropanecarbonyl)azetidin-3-yl)methyl)-2-(2-fluoro-4-(quinolin-6-yl)phenyl)-4,4-dimethyl-1H-imidazol-5(4H)-one] | 5.05
CC1(C)N=C(c2ccc(-c3n[nH]c4ccccc34)cc2F)N(CC2CN(C(=O)C3CC3)C2)C1=O [Compound 58, 1-((1-(cyclopropanecarbonyl)azetidin-3-yl)methyl)-2-(2-fluoro-4-(1H-indazol-3-yl)phenyl)-4,4-dimethyl-1H-imidazol-5(4H)-one] | 6.00
CC1(C)N=C(c2ccc(-c3c[nH]c4ccccc34)cc2)N(CC2CN(C(=O)C3CC3)C2)C1=O [Compound 59, 2-(4-(1H-indol-3-yl)phenyl)-1-((1-(cyclopropanecarbonyl)azetidin-3-yl)methyl)-4,4-dimethyl-1H-imidazol-5(4H)-one] | ~5.79
CC1(C)N=C(c2ccc(-c3ccc4ncccc4c3)cc2)N(C[C@@H]2CCN(C(=O)C3CC3)C2)C1=O [Compound 64, (R)-1-((1-(cyclopropanecarbonyl)pyrrolidin-3-yl)methyl)-4,4-dimethyl-2-(4-(quinolin-6-yl)phenyl)-1H-imidazol-5(4H)-one] | 5.67
CC1(C(=O)N2CC[C@@H](CN3C(=O)C(C)(C)N=C3c3ccc(-c4ccc5cc(F)ccc5c4)cc3F)C2)CC1 [Compound 75, (R)-2-(2-fluoro-4-(6-fluoronaphthalen-2-yl)phenyl)-4,4-dimethyl-1-((1-(1-methylcyclopropanecarbonyl)pyrrolidin-3-yl)methyl)-1H-imidazol-5(4H)-one] | 7.26
Cn1ncc2cc(-c3ccc(C4=NC(C)(C)C(=O)N4C[C@@H]4CCN(C(=O)C5(O)CC5)C4)c(F)c3)ccc21 [Compound 76, (R)-2-(2-fluoro-4-(1-methyl-1H-indazol-5-yl)phenyl)-1-((1-(1-hydroxycyclopropanecarbonyl)pyrrolidin-3-yl)methyl)-4,4-dimethyl-1H-imidazol-5(4H)-one] | 7.07
CC1(C)N=C(c2ccc(-c3ccc4cc(F)ccc4c3)cc2F)N(C[C@@H]2CCN(C(=O)C3(O)CC3)C2)C1=O [Compound 88, (R)-2-(2-fluoro-4-(6-fluoronaphthalen-2-yl)phenyl)-1-((1-(1-hydroxycyclopropanecarbonyl)pyrrolidin-3-yl)methyl)-4,4-dimethyl-1H-imidazol-5(4H)-one] | 7.69
Cn1cnc2cc(-c3ccc(C4=NC(C)(C)C(=O)N4C[C@@H]4CCN(C(=O)C5(O)CC5)C4)c(F)c3)ccc21 [Compound 89, (R)-2-(2-fluoro-4-(1-methyl-1H-benzo[d]imidazol-5-yl)phenyl)-1-((1-(1-hydroxycyclopropanecarbonyl)pyrrolidin-3-yl)methyl)-4,4-dimethyl-1H-imidazol-5(4H)-one] | 7.22
Cn1cnc2cc(-c3ccc(C4=NC(C)(C)C(=O)N4C[C@@H]4CCN(C(=O)C5(C)CC5)C4)c(F)c3)ccc21 [Compound 90, (R)-2-(2-fluoro-4-(1-methyl-1H-benzo[d]imidazol-5-yl)phenyl)-4,4-dimethyl-1-((1-(1-methylcyclopropanecarbonyl)pyrrolidin-3-yl)methyl)-1H-imidazol-5(4H)-one] | 7.10
Cc1cc(-c2ccc3c(c2)ncn3C)ccc1C1=NC(C)(C)C(=O)N1CC1CN(C(=O)C2(O)CC2)C1 [Compound 91, 1-((1-(1-hydroxycyclopropanecarbonyl)azetidin-3-yl)methyl)-4,4-dimethyl-2-(2-methyl-4-(1-methyl-1H-benzo[d]imidazol-5-yl)phenyl)-1H-imidazol-5(4H)-one] | 6.37
Cc1cc(-c2ccc3c(c2)ncn3C)ccc1C1=NC(C)(C)C(=O)N1C[C@@H]1CCN(C(=O)C2(O)CC2)C1 [Compound 92, (R)-1-((1-(1-hydroxycyclopropanecarbonyl)pyrrolidin-3-yl)methyl)-4,4-dimethyl-2-(2-methyl-4-(1-methyl-1H-benzo[d]imidazol-5-yl)phenyl)-1H-imidazol-5(4H)-one] | 7.04
Cn1cnc2cc(-c3ccc(C4=NC(C)(C)C(=O)N4CC4CN(C(=O)C5(C)CC5)C4)c(F)c3)ccc21 [Compound 93, 2-(2-fluoro-4-(1-methyl-1H-benzo[d]imidazol-5-yl)phenyl)-4,4-dimethyl-1-((1-(1-methylcyclopropanecarbonyl)azetidin-3-yl)methyl)-1H-imidazol-5(4H)-one] | 7.00
Cn1cnc2cc(-c3ccc(C4=NC(C)(C)C(=O)N4CC4CN(C(=O)C5(O)CC5)C4)c(F)c3)ccc21 [Compound 94, 2-(2-fluoro-4-(1-methyl-1H-benzo[d]imidazol-5-yl)phenyl)-1-((1-(1-hydroxycyclopropanecarbonyl)azetidin-3-yl)methyl)-4,4-dimethyl-1H-imidazol-5(4H)-one] | 6.49
Cn1cc(-c2ccc(-c3ccc(C4=NC(C)(C)C(=O)N4C[C@@H]4CCN(C(=O)C5(O)CC5)C4)c(F)c3)cc2)cn1 [Compound 95, (R)-2-(3-fluoro-4′-(1-methyl-1H-pyrazol-4-yl)-[1,1′-biphenyl]-4-yl)-1-((1-(1-hydroxycyclopropanecarbonyl)pyrrolidin-3-yl)methyl)-4,4-dimethyl-1H-imidazol-5(4H)-one] | 7.52
Cc1cc(-c2ccc3cc(C#N)ccc3c2)ccc1C1=NC(C)(C)C(=O)N1CC1CN(C(=O)C2CC2)C1 [Compound 96, 6-(4-(1-((1-(cyclopropanecarbonyl)azetidin-3-yl)methyl)-4,4-dimethyl-5-oxo-4,5-dihydro-1H-imidazol-2-yl)-3-methylphenyl)-2-naphthonitrile] | 7.39
CC1(C)N=C(c2ccc(-c3n[nH]c4ccccc34)cc2)N(CC2CN(C(=O)C3CC3)C2)C1=O [Compound 99, 2-(4-(1H-indazol-3-yl)phenyl)-1-((1-(cyclopropanecarbonyl)azetidin-3-yl)methyl)-4,4-dimethyl-1H-imidazol-5(4H)-one] | 5.26

Same assay, conditions: 3H-acetyl-CoA and malonyl-CoA substrates, SPA, mean if tested more than once, read-out: Human FASN pIC50 (converted)

Compound | IC50
CC1(C)N=C(c2ccc(-c3ccc4ncccc4c3)cc2)N(CC2CN(C(=O)C3CC3)C2)C1=O [Compound 98, 1-((1-(cyclopropanecarbonyl)azetidin-3-yl)methyl)-4,4-dimethyl-2-(4-(quinolin-6-yl)phenyl)-1H-imidazol-5(4H)-one] | > 10 µM
